Test results as given in patent publication US8481597B2, “Use of (-) (3-trihalomethylphenoxy) (4-halophenyl) acetic acid derivatives for treatment of insulin resistance, type 2 diabetes, hyperlipidemia and hyperuricemia” (Metabolex, Inc., priority 1999, dated 2013).
Entries after “also recorded” stand apart in the source; their conditions may differ.

Experiments:
C57BL/6J ob/ob mice [1] = assay: Time course of glucose-lowering after a single oral dose in diabetic ob/ob mice (Example 8); type: in vivo; conditions: single oral dose 250 mg/kg; for plasma glucose at 24 hours: vehicle 408±16.2
C57BL/6J ob/ob mice [2] = assay: Glucose and insulin lowering on daily oral administration in diabetic ob/ob mice (Example 9); type: in vivo; conditions: for plasma glucose relative to control animals, in words / plasma insulin relative to vehicle control, in words: daily oral, racemate 250 mg/kg/day, enantiomers 125 and 250 mg/kg/day
Protocol: The gavage volume was 10 ml/kg.

Zucker fa/fa rats [3] = assay: Oral glucose challenge in Zucker fatty rats (Example 10); type: in vivo; conditions: racemate 100 mg/kg, enantiomers 50 and 100 mg/kg
Protocol: (§1) Prior to treatment, rats were assigned to 6 groups based on body weight. Each treatment group consisted of 8 rats. […] The gavage volume was 10 ml/kg. All rats received an oral glucose challenge (1.9 g/kg) 5.5 hours after the treatment and 4 hours after withdrawal of the food. Blood samples were taken at 0, 15, 30, 60, 90, 120, and 180 minutes following the glucose challenge for plasma glucose measurement. […] On day 5, rats received the intravenous insulin (0.75 U/kg) 5.5 hours after the last dose and 4 hours after withdrawal of the food. Blood samples were taken at 3, 6, 9, 12, 15 and 18 minutes following the insulin injection for plasma glucose measurement.

[4] = system: Zucker diabetic fatty (ZDF) rats; assay: Lipid lowering in Zucker Diabetic Fatty rats (Example 11); type: in vivo; conditions: for plasma cholesterol, in words: Experiment I, 13 days, racemate 50 mg/kg/day, enantiomers 25 mg/kg/day
Protocol: Male Zucker diabetic fatty (ZDF) rats were obtained from GMI Laboratories (Indianapolis, Ind.) at 9 weeks of age. Vehicle or enantiomers of halofenate administered by oral gavage on a daily basis starting at 74 days of age. Initial blood samples were obtained for analysis one day before treatment and at the indicated times in the treatment protocol. Blood was analyzed for plasma triglyceride and cholesterol by standard techniques.

cyclooxygenase 1 (COX-1) = biological target: T1, cyclooxygenase 1 (COX-1) (Homo sapiens, UniProt P23219); assay: COX-1 inhibition in human whole blood assay, TXB2 production (Example 19); type: cell-based
T1 construct: was conducted using fresh human blood from healthy donors; endogenous in cells; host or cells: heparinized fresh human whole blood, stimulated with calcium ionophore A23187
Protocol: An assay for cyclooxygenase 1 (COX-1) inhibition by the compounds of the present invention was conducted using fresh human blood from healthy donors. […] The enzyme was activated by the commercially available calcium ionophore A23187.
This bioassay is based on the production of thromboxane B2 (TXB2) after COX-1 activation. When activated, COX-1 generates prostaglandin H2 which is then converted to thromboxane A2 (TXA2) by thromboxane synthase and then finally to thromboxane B2 by non-enzymatic […]. In addition, PGE2 levels were measured to exclude inhibition of thromboxane synthase. This assay allows discrimination between COX-1 and thromboxane synthase inhibition.
TXB2 and PGE2 were measured by commercially available immunoassay kits purchased from Assay Designs, Inc. (Ann Arbor, Mich.). All other chemicals were from Sigma except as noted. […] Immediately before use, all compounds were diluted 1:10 in RPMI-1640 medium (Gibco BRL, 11875-093) to make a 10× concentrated stock solution. The 10×RPMI-1640 stock solutions of the calcium ionophore were prepared in an identical manner. […] COX-1 was then activated by adding 25 microliters of the 10× stock solution of 25 micromolar calcium ionophore. The plates were shaken for 10 minutes at room temperature and then incubated at 37° C. for an additional 30 minutes. After these incubation times, the plates were centrifuged at 2,000 g for 5 minutes. Two microliters of plasma were taken from each reaction for the measurement of TXB2 using an enzyme immunoassay kit from Assay Designs, Inc. The PGE2 level in the same reaction was measured using a PGE2 enzyme immunoassay kit from Assay Designs, Inc.
The results of the assay are presented as the percent inhibition of COX-1 activity.

[5] = cited from earlier work
C57BL/6J ob/ob mice [6] = assay: Glucose lowering of (±) and (−) halofenate analogs in ob/ob mice (Example 12); type: in vivo; conditions: for time points with significantly reduced plasma glucose concentrations: 150 mg/kg oral single dose
CYP2C9 = CYP2C9 (Homo sapiens, UniProt P11712)
Zucker fa/fa rats [7] = assay: Short insulin tolerance test in Zucker fatty rats (Example 10); type: in vivo; conditions: 50 mg/kg/day oral for 5 days
Protocol: as §1

ZDF rats = assay: Plasma glucose in ZDF rats, (−) halofenate vs (+) halofenate (Example 13); type: in vivo; conditions: 50 mg/kg oral once a day for 3 days
Protocol: Male 8-9 week old ZDF rats were purchased from Genetic Models, Inc. (Indianapolis, Ind.). […] Rats that had 4-hour fasting plasma glucose levels between 200 and 500 mg/dL were used. […] The gavage volume was 5 ml/kg. Blood samples were taken at 5 hours post dose on day 2 and 3.

[8] = system: oxonic acid induced hyperuricemic rats; assay: Plasma uric acid in oxonic acid induced hyperuricemic rats (Example 17); type: in vivo, SD rats; conditions: oral 50 mg/kg for 3 days, 100 mg/kg on the 4th day; blood 6 hours post gavage on day 4
Text: Male SD rats, weight 275-300 g were purchased from Charles River. […] To establish a hyperuricemic state, animals were put on a diet containing 2.5% (w/w) of oxonic acid (Sigma Chemical Co, St. Louis, Mo., USA) throughout the experiment. Oxonic acid elevates plasma uric acid by inhibiting uricase. Rats were screened for plasma uric acid levels 3 days after they were placed on the diet, and those that had extreme plasma uric acid levels were excluded. Rats were assigned to one of three groups and the mean uric acid levels were equivalent in each group. […] Oxonic acid was delivered in a liquid formulation containing 0.9% (w/v) methylcellulose. The gavage and injection volumes were 5 ml/kg. Blood samples were taken at 6 hours post oral gavage on day 4. Plasma uric acid levels were determined colorimetrically using the Infinity Uric Acid Reagent (Sigma Chemical Co, St. Louis, Mo., USA).

[9] = Experiment II, 37.5 mg/kg/day (High dose)

Sequence of CYP2C9 (P11712 whole entry): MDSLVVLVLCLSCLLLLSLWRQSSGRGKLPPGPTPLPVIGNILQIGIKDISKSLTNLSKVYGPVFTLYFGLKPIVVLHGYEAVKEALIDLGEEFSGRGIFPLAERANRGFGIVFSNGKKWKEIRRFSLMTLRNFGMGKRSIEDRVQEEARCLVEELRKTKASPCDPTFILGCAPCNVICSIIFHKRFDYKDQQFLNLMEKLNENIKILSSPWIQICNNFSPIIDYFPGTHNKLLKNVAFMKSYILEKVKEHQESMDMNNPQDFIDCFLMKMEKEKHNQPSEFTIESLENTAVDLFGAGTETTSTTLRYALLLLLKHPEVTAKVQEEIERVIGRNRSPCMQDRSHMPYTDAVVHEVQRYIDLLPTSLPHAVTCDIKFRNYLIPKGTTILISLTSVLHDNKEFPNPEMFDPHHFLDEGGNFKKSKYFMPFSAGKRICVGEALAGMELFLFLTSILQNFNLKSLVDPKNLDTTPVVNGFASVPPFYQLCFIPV
T1 sequence (P23219 24-599): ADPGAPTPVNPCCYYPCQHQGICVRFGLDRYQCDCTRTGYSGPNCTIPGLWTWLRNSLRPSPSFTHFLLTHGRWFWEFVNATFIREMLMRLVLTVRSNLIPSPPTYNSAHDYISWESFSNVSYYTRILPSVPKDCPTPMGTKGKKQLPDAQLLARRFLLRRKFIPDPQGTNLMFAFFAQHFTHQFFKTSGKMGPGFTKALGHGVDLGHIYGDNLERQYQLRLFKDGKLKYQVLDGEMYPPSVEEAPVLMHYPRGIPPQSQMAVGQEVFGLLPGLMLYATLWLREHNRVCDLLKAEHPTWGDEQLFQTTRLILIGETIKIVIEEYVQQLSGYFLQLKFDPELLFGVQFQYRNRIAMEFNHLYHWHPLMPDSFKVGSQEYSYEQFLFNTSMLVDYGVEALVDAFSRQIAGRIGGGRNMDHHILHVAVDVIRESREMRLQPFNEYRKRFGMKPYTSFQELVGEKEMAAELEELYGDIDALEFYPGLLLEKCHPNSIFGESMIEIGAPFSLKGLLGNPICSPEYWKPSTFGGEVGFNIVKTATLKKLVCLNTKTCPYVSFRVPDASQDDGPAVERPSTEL

CC(=O)NCCOC(=O)C(Oc1cccc(C(F)(F)F)c1)c1ccc(Cl)cc1 (racemic) [racemic halofenate, 2-acetamidoethyl (4-chlorophenyl) (3-trifluoromethylphenoxy)acetate, reference compound]
time course of glucose-lowering, in words (C57BL/6J ob/ob mice [1]): significantly reduced plasma glucose concentrations at most of the timepoints
time of peak glucose-lowering activity (C57BL/6J ob/ob mice [1]): 9 h
plasma glucose at 24 hours (C57BL/6J ob/ob mice [1]): 259.3 ± 20.8 mg/dL
plasma glucose relative to control animals, in words (C57BL/6J ob/ob mice [2]): Significant decreases in glucose levels
plasma insulin relative to vehicle control, in words (C57BL/6J ob/ob mice [2]): insulins were lower
incremental glucose area under the curve (AUC) relative to vehicle control, in words (Zucker fa/fa rats [3]): not statistically significant
plasma glucose after oral glucose challenge, in words (Zucker fa/fa rats [3]; single oral dose 5.5 hours before challenge): The plasma glucose was reduced
plasma cholesterol, in words [4]: plasma cholesterol declined with treatment
IC50 (cyclooxygenase 1 (COX-1)): ~1000 µM
side effects in patients ([5]; previous clinical studies (Friedberg et al. 1986)): gastrointestinal bleeding from stomach and peptic ulcers; also recorded: increased risk of gastrointestinal side effects such as upper gastrointestinal ulcers and bleeding
effect on glucose in patients with diabetes treated with the drug alone ([5]; previous studies from the 1970's): minimal effect on glucose

NC(=O)COC(=O)C(Oc1cccc(C(F)(F)F)c1)c1ccc(Cl)cc1 (single isomer, unassigned; (-)) [(−)Analog 37]
time points with significantly reduced plasma glucose concentrations (C57BL/6J ob/ob mice [6]): 6 h

CC(=O)NCCOC(=O)C(Oc1cccc(C(F)(F)F)c1)c1ccc(Br)cc1 (single isomer, unassigned; (-)) [(−)Analog 29]
time points with significantly reduced plasma glucose concentrations (C57BL/6J ob/ob mice [6]): 6 h

O=C(NCCOC(=O)C(Oc1cccc(C(F)(F)F)c1)c1ccc(Cl)cc1)c1ccccc1 (single isomer, unassigned; (-)) [(−)Analog 36]
time points with significantly reduced plasma glucose concentrations (C57BL/6J ob/ob mice [6]): 6 h

CN(C)CCOC(=O)C(Oc1cccc(C(F)(F)F)c1)c1ccc(Cl)cc1 (racemic) [(±)Analog 35]
6 hours Glucose (C57BL/6J ob/ob mice [6]; 125 mg/kg oral once a day, 6 hours after first dose): 319.6 ± 26.7 mg/dL
30 hours Glucose (C57BL/6J ob/ob mice [6]; 125 mg/kg oral once a day, 6 hours after second dose): 276.8 ± 17.6 mg/dL
54 hours Glucose (C57BL/6J ob/ob mice [6]; 125 mg/kg oral once a day, 6 hours after third dose): 286.2 ± 31.5 mg/dL
Predose Glucose (C57BL/6J ob/ob mice [6]; baseline before dosing, group later given 125 mg/kg oral once a day): 387.0 ± 18.0 mg/dL

Nc1ccc(S(=O)(=O)Nc2ccnn2-c2ccccc2)cc1 [SFZ, sulfaphenazole, reference compound]
4-OH TB Production (CYP2C9): BQL
% Inhibition (Tolbutamide, CYP2C9) (CYP2C9; both, human, microsomes): ~100%

CC(=O)NCCOC(=O)C(Oc1cccc(C(F)(F)F)c1)c1ccc(Cl)cc1 (single isomer, unassigned; (+)) [(+) halofenate, (+) 2-Acetamidoethyl 4-Chlorophenyl-(3-trifluoromethylphenoxy)-acetate, reference compound]
earliest time of plasma glucose reduction / significant activity (C57BL/6J ob/ob mice [1]): 4.5 h
time of peak glucose-lowering activity (C57BL/6J ob/ob mice [1]): 7.5 h
plasma glucose at 24 hours (C57BL/6J ob/ob mice [1]): 306 ± 28.5 mg/dL
overnight fasting plasma insulin after 5 days treatment, in words (C57BL/6J ob/ob mice [2]; 125 mg/kg/day oral, ob/ob mice): did not lower plasma insulin
overnight fasting plasma insulin after 5 days treatment, in words (C57BL/6J ob/ob mice [2]; 250 mg/kg/day oral, ob/ob mice): resulted in a decrease in plasma insulin
plasma glucose following an overnight fast after 5 days treatment (C57BL/6J ob/ob mice [2]; 250 mg/kg/day oral, ob/ob mice, control 185.4±12.3): 127.2 ± 9.7 mg/dL
plasma glucose relative to control animals, in words (C57BL/6J ob/ob mice [2]): Significant decreases in glucose levels
plasma insulin relative to vehicle control, in words (C57BL/6J ob/ob mice [2]): insulins were lower
incremental glucose area under the curve (AUC) relative to vehicle control, in words (Zucker fa/fa rats [3]): not statistically significant
insulin sensitivity (slope of decline in glucose after i.v. insulin), in words (Zucker fa/fa rats [7]): small effect on insulin sensitivity that was not significantly different from the vehicle-treated control
plasma cholesterol, in words [4]: remained relatively constant
days of treatment with significantly lower plasma cholesterol vs control [4, 9]: 7 days
plasma triglyceride, in words [4, 9]: significant lowering of plasma triglyceride
plasma glucose concentrations compared to vehicle-treated animals, in words (ZDF rats): failed to reduce plasma glucose concentrations
plasma uric acid levels, in words [8]: lowered plasma uric acid levels, but it was not statistically significant

NC(=O)COC(=O)C(Oc1cccc(C(F)(F)F)c1)c1ccc(Cl)cc1 (racemic) [(±)Analog 37]
time points with significantly lowered plasma glucose concentrations (C57BL/6J ob/ob mice [6]; 125 mg/kg oral once a day): 54 h

CN(C)C(=O)COC(=O)C(Oc1cccc(C(F)(F)F)c1)c1ccc(Cl)cc1 (single isomer, unassigned; (-)) [(−)Analog 38]
time points with significantly reduced plasma glucose concentrations (C57BL/6J ob/ob mice [6]): 6 h
